In general, IC50 refers to the concentration that inhibits the measured activity by half.

Consider 3 molecules from ChEMBL document CHEMBL5357075, “Innovative Therapeutic Strategies in TYK2-Targeted Treatments: From Cancer to Autoimmune Disorders” (ACS Med Chem Lett, 2024).

The target in assay [1] is T1, Non-receptor tyrosine-protein kinase TYK2 (Homo sapiens, UniProt P29597). As to the kind of experiment: Inhibition of TYK2 in HEK-Blue alpha/beta cells pretreated for 60 mins followed by IFN-alpha stimulation for 16 to 18 hrs by Quanti-Blue based SEAP assay. It is filed as cell-based.
The target in assay [2] is T1, Non-receptor tyrosine-protein kinase TYK2. As to the kind of experiment: Inhibition of TYK2 in HEK-Blue IL-23 cells pretreated for 60 mins followed by IL-23 stimulation for 22 to 24 hrs by Quanti-Blue based SEAP assay. It is filed as cell-based.

T1 sequence (P29597 whole entry): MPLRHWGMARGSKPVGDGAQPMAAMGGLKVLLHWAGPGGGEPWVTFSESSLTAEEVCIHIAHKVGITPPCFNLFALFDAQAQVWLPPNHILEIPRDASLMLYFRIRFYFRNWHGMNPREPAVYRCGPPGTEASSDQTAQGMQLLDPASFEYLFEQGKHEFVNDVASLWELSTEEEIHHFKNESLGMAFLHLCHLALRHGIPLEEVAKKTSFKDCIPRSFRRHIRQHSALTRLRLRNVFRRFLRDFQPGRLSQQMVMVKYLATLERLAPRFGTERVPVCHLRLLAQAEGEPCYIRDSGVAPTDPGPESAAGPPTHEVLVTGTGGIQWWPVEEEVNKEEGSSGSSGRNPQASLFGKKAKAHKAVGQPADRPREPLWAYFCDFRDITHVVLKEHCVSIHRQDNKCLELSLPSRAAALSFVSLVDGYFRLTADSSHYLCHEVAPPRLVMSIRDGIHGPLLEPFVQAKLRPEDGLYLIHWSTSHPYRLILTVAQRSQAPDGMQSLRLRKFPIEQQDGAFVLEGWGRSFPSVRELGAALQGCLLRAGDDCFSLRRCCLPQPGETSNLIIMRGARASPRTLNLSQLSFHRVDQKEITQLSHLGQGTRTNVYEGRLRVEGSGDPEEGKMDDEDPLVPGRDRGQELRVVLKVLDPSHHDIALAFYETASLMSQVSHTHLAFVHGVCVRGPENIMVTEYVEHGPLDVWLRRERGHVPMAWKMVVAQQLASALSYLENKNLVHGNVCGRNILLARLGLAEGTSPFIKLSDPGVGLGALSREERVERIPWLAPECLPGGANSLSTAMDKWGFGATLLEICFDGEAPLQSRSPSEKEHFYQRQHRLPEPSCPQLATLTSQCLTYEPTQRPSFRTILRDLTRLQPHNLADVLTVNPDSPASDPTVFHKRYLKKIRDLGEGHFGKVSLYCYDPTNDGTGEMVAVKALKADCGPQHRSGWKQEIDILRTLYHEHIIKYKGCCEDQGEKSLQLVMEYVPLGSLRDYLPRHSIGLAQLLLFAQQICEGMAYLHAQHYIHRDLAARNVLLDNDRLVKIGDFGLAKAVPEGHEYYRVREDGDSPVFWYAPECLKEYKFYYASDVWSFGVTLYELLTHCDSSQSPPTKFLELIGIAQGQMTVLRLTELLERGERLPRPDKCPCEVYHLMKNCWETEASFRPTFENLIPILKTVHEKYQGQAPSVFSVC

As to `[2H]C([2H])([2H])CC(=O)c1cnc(NC(=O)C2CC2)cc1Nc1cccc2c1N(C)Cc1nc(C)nn1-2`, the figures for the IC50 in assay [1] and in assay [2] were 30 nM and below 30 nM, respectively.

For `[2H]C([2H])([2H])CC(=O)c1cnc(NC(=O)C2CC2)cc1Nc1cccc2c1N(C)[C@@H](C)c1nn(C)nc1-2`, the IC50 in assay [1] and in assay [2] was below 30 nM in each case.

With `[2H]C([2H])([2H])CC(=O)c1cnc(NC(=O)C2CC2)cc1Nc1nccc2c1N(C)Cc1nn(CC)nc1-2`, the IC50 in assay [1] was 30 nM; in assay [2], below 30 nM.
